Measurements: the NIST ThermoML archive (doi:10.1016/j.tca.2017.09.024)
Numbers after ± are expanded uncertainties.

Settings: Crystal; DTA

Normal melting temperature | Structure (SMILES)
-41.9 ± 2 °C | Fc1ccccc1 [fluorobenzene]
5.6 ± 2 °C | c1ccccc1 [benzene]
